Data reported in patent US10597405B2, “Chemical compounds” (ASTRAZENECA AB, priority 2017, dated 2020).

What was measured:
KRasG12C [1] = target: T1, KRasG12C (Homo sapiens, UniProt P01116, G12C); test: KRasG12C functional assay (HTRF nucleotide exchange / Raf RBD binding); format: biochemical; settings: GDP loaded biotinylated KRasG12C, samples incubated 4 hrs, FRET readout; single experiment or average of two or more
T1 construct: biotin (biotinylated); made in house
Experimental: KRasG12C Functional Assay
All enzyme and substrate solutions were prepared in assay buffer containing 20 mM HEPES (pH 7.5), 5 mM MgCl2, 150 mM NaCl, and 0.01% Tween 20. […] In a separate mix 20 nM GST-Raf Ras binding domain (GST-Raf RBD, purified in house) and 4 μg/ml anti-GST XL665 antibody (Cisbio) was prepared in assay buffer containing 50 mM Potassium Fluoride and 0.05 mg/ml BSA and equilibrated for 4 hours before adding 0.6 μM Guanosine 5′-[γ-thio]triphosphate (GTPγS, Sigma) and 0.08 μM SOS (purified in house). 5 μl of the GST-RAF RBD mix was then dispensed into each well of the assay plate. […] This is detected simultaneously via the specific binding interaction between active GTPγS KRas^G12C with GST-Raf RBD which brings the europium and XL665 into close proximity enabling an increased FRET signal to be detected on a Pherastar (BMG) plate reader equipped with the HTRF filter module. […] IC50 values were calculated from normalised dose-response response FRET data curve fitted in Genedata screener (Basel, Switzerland).

KRasG12C [2] = target: T1, KRasG12C; test: KRasG12C Mass Spectrometry adducting assay; format: binding; settings: 10 μM test compound, 4 μM KRasG12C, 4 hours reaction; single experiment or average of two or more
Experimental: KRasG12C Mass Spectrometry Adducting Assay
Enzyme solutions were prepared in assay buffer containing 20 mM HEPES (pH 7.5), 5 mM MgCl2, and 150 mM NaCl. 4 μM GDP loaded biotinylated KRas^G12C was prepared in assay buffer and 50 μl added into each well of a 96 well polypropylene assay plate (Greiner, #651201) containing 500 nl of 1 mM test compounds (final concentration 10 μM), this was allowed to react for 4 hours before the addition of 50 μl 1% Formic acid to quench the reaction. The plate was sealed before reading on a Xevo G2 QTOF (Waters) and Acquity LC system (Waters). 10 μl of sample was injected onto a Xbridge BEH300; C4; 3.5 um; 2.1×50 mm column (Waters) running a 3 minute gradient. Blank samples were run in between each test sample.
Data was analysed in Mass Lynx software (Waters), the Total ion count (TIC) trace was used and the eluted protein peak data combined. Using the combined spectrum the data was deconvoluted using MaxEnt1 method. The peak area for apo-protein KRas^G12C (APO) and KRAS+relative cmpd mass (adduct) were measured, and a percentage adduct was calculated using the following calculation: Percent adduct=100*(area of adduct peak/(sum of APO+adduct peaks)

IC50 (KRasG12C [1]) | KRasG12C M.S. Binding Mean adduct % (KRasG12C [2]) | Compound
745 nM | 87% | C=CC(=O)N1CCN2c3c(cnc4cc(-c5c(O)cccc5F)c(Cl)cc34)N(C)C(=O)C2(C)C1 (single isomer, unassigned) [Compound 33, 11-Chloro-10-(2-fluoro-6-hydroxyphenyl)-4a,6-dimethyl-3-(prop-2-enoyl)-2,3,4,4a-tetrahydro-1H-pyrazino[1′,2′:4,5]pyrazino[2,3-c]quinolin-5(6H)-one]
26 nM | 96% | C=CC(=O)N1CCN2c3c(cnc4cc(-c5c(F)ccc6cc[nH]c(=O)c56)c(Cl)cc34)OC[C@H]2C1 (single isomer, unassigned) [Compound 45]
47 nM | 95% | C=CC(=O)N1CCN2c3c(cnc4c(F)c(-c5c(C)ccc6[nH]ncc56)c(Cl)cc34)N(C)C(=O)[C@H]2C1 (single isomer, unassigned) [Compound 49]
47 nM | 95% | C=CC(=O)N1CCN2c3c(cnc4cc(-c5c(C)ccc6[nH]cnc56)c(Cl)cc34)OC[C@H]2C1 (single isomer, unassigned) [Compound 65]
654 nM | 25% | C=CC(=O)N1CCN2c3c(cnc4cc(-c5c(C)ccc6[nH]cnc56)c(Cl)cc34)OC[C@H]2C1 (single isomer, unassigned) [Compound 66]
47 nM | 97% | C=CC(=O)N1CCN2c3c(cnc4cc(-c5c(C)ccc6[nH]c(=O)n(C)c56)c(Cl)cc34)OC[C@H]2C1 (single isomer, unassigned) [Compound 67]
11400 nM | 4% | C=CC(=O)N1CCN2c3c(cnc4cc(-c5c(C)ccc6[nH]c(=O)n(C)c56)c(Cl)cc34)OC[C@H]2C1 (single isomer, unassigned) [Compound 68]
2700 nM | 12% | C=CC(=O)N1CCN2c3c(cnc4cc(-c5c(C)ccc6cc[nH]c(=O)c56)c(Cl)cc34)OC[C@H]2C1 (single isomer, unassigned) [Compound 69]
49 nM | 94% | C=CC(=O)N1CCN2c3c(cnc4cc(-c5c(C)ccc6cc[nH]c(=O)c56)c(Cl)cc34)OC[C@H]2C1 (single isomer, unassigned) [Compound 70]
47 nM | 94% | C=CC(=O)N1CCN2c3c(cnc4cc(-c5c(C)ccc6[nH]c(=O)[nH]c56)c(Cl)cc34)OC[C@H]2C1 (single isomer, unassigned) [Compound 71]
96 nM | 96% | C#Cc1cc2c3c(cnc2cc1-c1c(C)ccc2[nH]ncc12)OC[C@H]1CN(C(=O)C=C)CCN31 (single isomer, unassigned) [Compound 75]
28 nM | 60% | C=CC(=O)N1CCN2c3c(cnc4c(F)c(-c5c(C)ccc6[nH]cnc56)c(Cl)cc34)OC[C@H]2C1 (single isomer, unassigned) [Compound 77]
41 nM | 95% | C=CC(=O)N1CCN2c3c(cnc4c(F)c(-c5c(C)ccc6c5C(=O)NC6)c(Cl)cc34)OC[C@H]2C1 (single isomer, unassigned) [Compound 86]
14 nM | 96% | C=CC(=O)N1CCN2c3c(cnc4c(F)c(-c5c(O)cccc5F)c(Cl)cc34)NC(=O)[C@H]2C1 (single isomer, unassigned) [Compound 88]
82 nM | 97% | C=CC(=O)N1CCN2c3c(cnc4c(C)c(-c5c(O)cccc5F)c(C)nc34)N(C)C(=O)[C@H]2C1 (single isomer, unassigned) [Compound 92]
20 nM | 95% | C=CC(=O)N1CCN2c3c(cnc4c(F)c(-c5c(O)cccc5F)c(Cl)cc34)OC[C@H]2C1 (single isomer, unassigned) [Example 7]
3500 nM | 3% | C=CC(=O)N1CCN2c3c(cnc4c(F)c(-c5c(O)cccc5F)c(Cl)cc34)N(C)C(=O)C2C1 (single isomer, unassigned) [Example 18, 3-acryloyl-11-chloro-9-fluoro-10-(2-fluoro-6-hydroxyphenyl)-6-methyl-2,3,4,4a-tetrahydro-1H-pyrazino[1′,2′:4,5]pyrazino[2,3-c]quinolin-5(6H)-one]
> 9200 nM | 3% | C=CC(=O)N1CCN2c3c(cnc4c(F)c(-c5c(O)cccc5F)c(Cl)cc34)N(C)C(=O)C2C1 (single isomer, unassigned) [Example 19, 3-acryloyl-11-chloro-9-fluoro-10-(2-fluoro-6-hydroxyphenyl)-6-methyl-2,3,4,4a-tetrahydro-1H-pyrazino[1′,2′:4,5]pyrazino[2,3-c]quinolin-5(6H)-one]
630 nM | 51% | C=CC(=O)N1CCN2c3c(cnc4c(F)c(-c5c(O)cccc5F)c(Cl)cc34)N(C)C(=O)C2C1 (single isomer, unassigned) [Example 20, 3-acryloyl-11-chloro-9-fluoro-10-(2-fluoro-6-hydroxyphenyl)-6-methyl-2,3,4,4a-tetrahydro-1H-pyrazino[1′,2′:4,5]pyrazino[2,3-c]quinolin-5(6H)-one]
9500 nM | 15% | C=CC(=O)N1C[C@@H]2C(=O)N(C)c3cnc4c(F)c(-c5c(O)cccc5F)c(Cl)cc4c3N2C[C@H]1C (single isomer, unassigned) [Example 21]
257 nM | 77% | C=CC(=O)N1CCN2c3c(cnc4cc(-c5c(O)cccc5F)c(Cl)c(OC)c34)OC[C@H]2C1 [Compound 83, 1-[(4aR)-11-Chloro-10-(2-fluoro-6-hydroxyphenyl)-12-methoxy-1,2,4a,5-tetrahydropyrazino[1′,2′:4,5][1,4]oxazino[2,3-c]quinolin-3(4H)-yl]prop-2-en-1-one]
341 nM | 74% | CN(C)C/C=C/C(=O)N1CCN2c3c(cnc4cc(-c5c(O)cccc5F)c(Cl)cc34)OC[C@H]2C1 [Example 9, (2E)-1-[(4aR)-11-Chloro-10-(2-fluoro-6-hydroxyphenyl)-1,2,4a,5-tetrahydropyrazino[1′,2′:4,5][1,4]oxazino[2,3-c]quinolin-3(4H)-yl]-4-(dimethylamino)but-2-en-1-one]

Compound | IC50 (KRasG12C [1]) | KRasG12C M.S. Binding Mean adduct % (KRasG12C [2])
C=CC(=O)N1CCN2c3c(cnc4c(OC)c(-c5c(O)cccc5F)c(Cl)cc34)OC[C@H]2C1 (single isomer, unassigned) [Compound 24] | 70 nM | 96%
C=CC(=O)N1CCN2c3c(cnc4c(C)c(-c5c(O)cccc5F)c(Cl)cc34)OC[C@H]2C1 (single isomer, unassigned) [Compound 38] | 9700 nM | 7%
C=CC(=O)N1CCN2c3c(cnc4cc(-c5c(O)cccc5F)c(Cl)cc34)OC[C@H]2C1 (single isomer, unassigned) [Example 1] | 186 nM | 96%
C=CC(=O)N1CCN2c3c(cnc4cc(-c5c(O)cccc5F)c(Cl)cc34)OC[C@H]2C1 (single isomer, unassigned) [Example 2] | 281 nM | 87%
C=CC(=O)N1CCN2c3c(cnc4cc(-c5c(C)ccc6[nH]ncc56)c(Cl)cc34)OC[C@H]2C1 (single isomer, unassigned) [Example 3] | 81 nM | 93%
